In patent US20250019385A1, “SPIROCYCLIC ANNULATED 2-AMINO-3-CYANO THIOPHENES AND DERIVATIVES FOR THE TREATMENT OF CANCER” (Boehringer Ingelheim International GmbH, priority 2023, published 2025):
pIC50: −log10 of the molar value.

What was measured:
MKN1 cells = test: MKN1 CTG proliferation assay (120 h) (gastric cancer, wt amplified); assay type: cell-based; conditions: Homo sapiens, MKN-1
Procedure: (§1) MKN1 cells (JCRB0252) are dispensed into black 384-well plates, flat and clear bottom (Greiner, PNr. 781091) at a density of 200 cells per well in 60 μl RPMI-1640 ATCC-Formulation (Gibco #A10491)+10% FCS (fetal calf serum, HyClone, SH30084.03). Cells are incubated overnight at 37° C. in a humidified tissue culture incubator at 5% CO2. Compounds (10 mM stock in DMSO) are added at logarithmic dose series using the ECHO acoustic liquid handler system (Beckman Coulter), normalizing for added DMSO and including DMSO controls. All compound treatments are performed in technical duplicates. For the TO time point measurement, untreated cells are analyzed at the time of compound addition. Plates are incubated for 120 h, and cell viability is measured using CellTiter-Glo luminescent cell viability reagent (Promega product code G7570). Viability (stated as percent of control) is defined as relative luminescence units RLU of each well divided by the RLU of cells in DMSO controls. IC50 values are determined from viability measurements by non-linear regression using a four-parameter model.
(§2) IC50 values of representative compounds according to the invention measured with these assays in the indicated cell lines are presented in Table 46.

AsPC-1 cells = test: AsPC-1 CTG proliferation assay (120 h) (pancreatic cancer, G12D); assay type: cell-based; conditions: Homo sapiens, ASPC1
Procedure: as §1, with “AsPC-1” for “MKN1”, “(ATCC CRL-1682)” for “(JCRB0252)”, “500” for “200”, “RPMI” for “RPMI-1640”, “(PAN P04-18047)+10%” for “(Gibco #A10491)+10%”
as §2

[1] = target: KRAS (G12D)::SOS1 protein-protein interaction (Homo sapiens (Human), UniProt P01116, G12D); test: KRAS::SOS1 AlphaScreen binding assay (KRAS G12D); conditions: GDP
Text: This assay can be used to examine the potency with which compounds according to the invention binding to (mutated) KRAS inhibit the protein-protein interaction between SOS1 and (mutated) KRAS e.g. KRAS G12C, KRAS G12D. […] Low IC50 values in this assay setting are indicative of strong inhibition of protein-protein interaction between SOS1 and KRAS:
These assays measure the inhibitory effect of compounds on KRAS mutant protein-protein interactions using the Alpha Screen technology by Perkin Elmer.
The following (mutant) enzyme forms of KRAS and interacting proteins are used in these assays at the given concentrations:
KRAS (G12D) 1-169, N-terminal 6His-tag, C-terminal avi-tag (Xtal BioStructures, Inc.); final assay concentration 10 nM and SOS1 564-1049, N-terminal 229 GST-tag, TEV cleavage site (Viva Biotech Ltd); final assay concentration 5 nM;
Test compounds dissolved in DMSO are dispensed onto assay plates (Proxiplate 384 PLUS, white, PerkinElmer; 6008289) using an Access Labcyte Workstation with the Labcyte Echo 55x. For the chosen highest assay concentration of 100 μM, 150 nL of compound solution are transferred from a 10 mM DMSO compound stock solution. A series of eleven fivefold dilutions per compound are transferred to the assay plate, compound dilutions are tested in duplicates. DMSO are added as backfill to a total volume of 150 nL.
The assays run on a fully automated robotic system in a darkened room below 100 Lux. To 150 nl of compound dilution 10 μl of a mix including KRAS mutant protein, SOS1 (final assay concentrations see above) and GDP nucleotide (Sigma G7127; final assay concentration 10 μM) in assay buffer (1×PBS, 0.1% BSA, 0.05% Tween 20) are added into columns 1-24.
After 30 minutes incubation time 5 μl of Alpha Screen bead mix in assay buffer are added into columns 1-23. Bead mix consists of AlphaLISA Glutathione Acceptor Beads (PerkinElmer, Cat No AL109) and AlphaScreen Streptavidin Donor Beads (PerkinElmer Cat No 6760002) in assay buffer at a final assay concentration of 10 μg/mL each.
Plates are kept at room temperature in a darkened incubator. After an additional 60 minutes incubation time the signal is measured in a PerkinElmer Envision HTS Multilabel Reader using the AlphaScreen specs from PerkinElmer.
Each plate contains up to 16 wells of a negative control depending on the dilution procedure (platewise or serial) (DMSO instead of test compound; with KRAS mutant::SOS1 GOP mix and bead mix; column 23) and 16 wells of a positive control (DMSO instead of test compound; with KRAS mutant::SOS1 GOP mix w/o bead mix; column 24).
As internal control known inhibitors of KRAS mutant::SOS1 interaction can be measured on each compound plate.
IC50 values are calculated and analyzed with Boehringer Ingelheim's MEGALAB C50 application using a 4 parametric logistic model.
Tables of example compounds disclosed herein contain IC50 values determined using the above assays (see Table 43).

Chain of KRAS (G12D)::SOS1 protein-protein interaction (P01116 other isoform, or with tags, fused parts or gaps G12D): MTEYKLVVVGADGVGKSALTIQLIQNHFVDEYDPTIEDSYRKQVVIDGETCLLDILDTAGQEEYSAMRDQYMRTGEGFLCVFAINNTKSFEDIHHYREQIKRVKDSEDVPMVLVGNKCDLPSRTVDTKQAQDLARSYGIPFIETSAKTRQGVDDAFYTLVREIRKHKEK

Row | SMILES | pIC50 (MKN1 cells) | pIC50 (AsPC-1 cells) | pIC50 [1]
1 | C[C@H](Oc1nc(-c2onc3c2CCC[C@@]32CCCc3sc(N)c(C#N)c32)nc2c1n(C)c(=O)n2C1COC1)[C@@H]1CCCN1C [I-24] | 6.45 | 5.56 | 8.52
2 | C[C@H](Oc1nc(-c2onc3c2CCC[C@@]32CCCc3sc(N)c(C#N)c32)nc2c1n(C)c(=O)n2[C@@H]1CCOC1)C12CCCN1CCC2 [I-25] | 7.32 | 5.89 | 8.70
3 | C[C@H](Oc1nc(-c2onc3c2CCC[C@@]32CCCc3sc(N)c(C#N)c32)nc2c1n(C)c(=O)n2[C@@H]1CCOC1)[C@@H]1CC[C@H](C)N1C [I-26] | 7.62 | 6.07 | 9.00
4 | C[C@H](Oc1nc(-c2onc3c2CCC[C@@]32CCCc3sc(N)c(C#N)c32)nc2c1n(C)c(=O)n2[C@@H]1CCOC1)[C@@H]1C[C@H](F)CN1C [I-27] | 6.90 | 5.64 | 8.70
5 | C[C@H](Oc1nc(-c2onc3c2CCC[C@@]32CCCc3sc(N)c(C#N)c32)nc2c1n(C)c(=O)n2[C@@H]1CCOC1)[C@@H]1C[C@@H]2C[C@@H]2N1C [I-28] | 6.87 | 5.76 | 8.40
6 | C[C@H](Oc1nc(-c2onc3c2CCC[C@@]32CCCc3sc(N)c(C#N)c32)nc2c1n(C)c(=O)n2[C@@]12COC[C@@H]1C2)[C@@H]1CCCN1C [I-29] | 8.30 | 6.49 | 9.00
7 | CCn1c(=O)n([C@@H]2CCCOC2)c2nc(-c3onc4c3CCC[C@@]43CCCc4sc(N)c(C#N)c43)nc(O[C@@H](C)[C@@H]3CCCN3C)c21 [I-30] | 7.41 | 6.01 | 8.70
8 | CO[C@H]1C[C@@H](n2c(=O)n(C)c3c(O[C@@H](C)[C@@H]4CCCN4C)nc(-c4onc5c4CCC[C@@]54CCCc5sc(N)c(C#N)c54)nc32)C1 [I-31] | 6.01 | 5.97 | 9.00
9 | CC(C)n1c(=O)n([C@@H]2CCOC2)c2nc(-c3onc4c3CCC[C@@]43CCCc4sc(N)c(C#N)c43)nc(O[C@@H](C)[C@@H]3CCCN3C)c21 [I-32] | 6.37 | 5.82 | 8.70
10 | CCn1c(=O)n([C@@H]2CCCOC2)c2nc(-c3onc4c3CCC[C@@]43CCCc4sc(N)c(C#N)c43)nc(OC[C@@]34CCCN3C[C@H](F)C4)c21 [I-33] | 5.38 | 5.05 | 6.90

Continued, values first:

Row | pIC50 (MKN1 cells) | pIC50 (AsPC-1 cells) | pIC50 [1] | SMILES
11 | 5.47 | 5.30 | 7.66 | CCn1c(=O)n([C@@H]2CCCOC2)c2nc(-c3onc4c3CCC[C@@]43CCCc4sc(N)c(C#N)c43)nc(OCC34CCCN3CCC4)c21 [I-34]
12 | 6.01 | 5.37 | 8.15 | CCn1c(=O)n([C@@H]2CCCOC2)c2nc(-c3onc4c3CCC[C@@]43CCCc4sc(N)c(C#N)c43)nc(OCC3(CN4CCCC4)CC3)c21 [I-35]
13 | 6.62 | 5.96 | 8.70 | CCn1c(=O)n([C@@H]2CCCOC2)c2nc(-c3onc4c3CCC[C@@]43CCCc4sc(N)c(C#N)c43)nc(O[C@@H](C)C34CCCN3CCC4)c21 [I-36]
14 | 6.50 | 5.38 | 8.10 | C[C@H](Oc1nc(-c2onc3c2CCC[C@@]32CCCc3sc(N)c(C#N)c32)nc2c1N(C)C(=O)CN2[C@@H]1CCOC1)[C@@H]1CCCN1C [I-37]
15 | 7.49 | 6.57 | 8.70 | C[C@H](Oc1nc(-c2onc3c2CCC[C@@]32CCCc3sc(N)c(C#N)c32)nc2c1ncn2[C@@H]1CCOC1)[C@@H]1CCCN1C [I-38]
16 | 7.54 | 6.45 | 9.00 | Cc1nc2c(O[C@@H](C)[C@@H]3CCCN3C)nc(-c3onc4c3CCC[C@@]43CCCc4sc(N)c(C#N)c43)nc2n1[C@@H]1CCOC1 [I-39]
17 | 6.66 | 6.30 | 8.70 | Cc1cc2c(O[C@@H](C)[C@@H]3CCCN3C)nc(-c3onc4c3CCC[C@@]43CCCc4sc(N)c(C#N)c43)nc2n1[C@@H]1CCOC1 [I-40]
